How the values were obtained:
[1] = tested on: CHK; assay: CHK phosphorylation of Flag-tagged β-synuclein in transfected HEK293T cells; type: cell-based; conditions: HEK293T co-transfected with CHK; pervanadate-treated; Western blot
[2] = biological target: T1, CHK-His6 (Rattus norvegicus, UniProt P41243); assay: Kinetic analysis of phosphorylation of peptide substrates by CHK-His6; type: biochemical
T1 sequence (P41243 1-467): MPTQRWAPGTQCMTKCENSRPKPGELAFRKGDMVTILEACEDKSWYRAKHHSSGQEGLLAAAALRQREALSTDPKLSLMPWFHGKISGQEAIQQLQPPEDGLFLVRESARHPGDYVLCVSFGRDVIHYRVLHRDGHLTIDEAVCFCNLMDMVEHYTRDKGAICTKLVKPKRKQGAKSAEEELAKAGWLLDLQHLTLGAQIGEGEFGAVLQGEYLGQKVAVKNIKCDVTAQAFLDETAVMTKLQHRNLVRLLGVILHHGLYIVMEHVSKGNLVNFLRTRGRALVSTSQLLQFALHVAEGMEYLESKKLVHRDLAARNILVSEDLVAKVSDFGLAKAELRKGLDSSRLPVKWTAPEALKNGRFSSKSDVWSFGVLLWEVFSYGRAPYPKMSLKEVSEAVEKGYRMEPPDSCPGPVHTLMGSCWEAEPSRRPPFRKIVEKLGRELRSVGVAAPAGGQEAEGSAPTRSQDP

[3] = Circular dichroism analysis of secondary structure; type: physicochemical; conditions: aqueous solution; SFig. 6
[4] = tested on: CHK; assay: CHK phosphorylation of peptides derived from α- and β-synucleins; type: biochemical; conditions: 30 °C; for reduction in CHK phosphorylation rate: vs β-syn(112–134), Fig. 2B, P81 filter assay, [γ-^32P]ATP
[5] = tested on: transgenic mice; conditions: mouse, in vivo; cited from earlier work
[6] = tested on: CHK; assay: Phosphorylation of α- and β-synucleins by CHK; type: biochemical; conditions: for phosphate incorporated by CHK: reaction time 120 min, synuclein 0.56 μM, CHK 0.04 μM
[7] = tested on: CHK; type: biochemical; conditions: higher than that of hsp90 (SFig. 4B)
[8] = CHK-His6 0.2 μM, substrate peptides 0–400 μM
[9] = CHK-His6 0.2 μM, substrate peptides 0–400 μM, Lineweaver-Burk plots
[10] = vs β-syn(112–134) and SFK-C-terminal peptide

Flag-[Y127F]β-synuclein: [Y127F]β-synuclein with the Flag tag attached at the N-terminus
effect of Y127F on CHK-induced phosphorylation in cells [1]: reduced the level of CHK-induced phosphorylation

KKDPEERPTFEYLQSFTATEPQYQPGENL [SFK C-terminal Peptide, reference compound]
kcat/KM [2, 8]: 5.1×10^−4 μM^−1S^−1 | kcat [2, 9]: 0.13 ± 0.003 S^−1 | secondary structure by CD [3]: random coil conformation

KKKK-MEPEGESYEDPPQEEYQEYEPEA [β-syn(112–134)]
CHK phosphorylation efficiency relative to α-syn peptide ([4]; higher than α-syn(117–140) peptide, CHK 0.11 μM, peptide 20 μM, time course (Fig. 3B)): ~ 10 fold | kcat/KM [2, 8]: 6.7×10^−4 μM^−1S^−1 | kcat [2, 9]: 0.17 ± 0.01 S^−1 | secondary structure by CD [3]: random coil conformation

KKK–GESFEAQDEGIYWNVGPEA [[D9A]CHK-optimal peptide]
kcat/KM [2, 8]: 111×10^−4 μM^−1S^−1 | kcat [2, 9]: 1.27 ± 0.06 S^−1 | effect of D9A substitution on KM ([2]; vs CHK-optimal peptide): small increase in KM | effect of D9A substitution on kcat ([2]; vs CHK-optimal peptide): slight reduction of kcat

KKK–GESFEDQDEGIYWNVGPEA [CHK-optimal peptide]
kcat/KM [2, 8]: 140×10^−4 μM^−1S^−1 | kcat [2, 9]: 1.45 ± 0.05 S^−1 | kcat ([2]; CHK-optimal peptide): 1.45 s⁻¹ | kcat relative to β-syn(112–134) and SFK-C-terminal peptide [2, 10]: approximately ten-fold higher | phosphorylation efficiency in comparison [2, 10]: phosphorylated with an efficiency higher than those of β-syn(112–134) and SFK-C-terminal peptide

[P123H] β-synuclein: β-synuclein mutant, proline to histidine substitution at position 123
phenotype of transgenic mice overexpressing the mutant [5]: progressive neurodegeneration

[Y119F, Y130F]β-syn(112–134): contains Y127 as the only tyrosine
reduction in CHK phosphorylation rate [4]: 30%

[Y127F] β-syn(112–134): Y127 is replaced by phenylalanine
reduction in CHK phosphorylation rate [4]: 84%

α-synuclein
phosphate incorporated by CHK [6]: 0.024 pmol | CHK substrate quality in comparison ([6]; α-synuclein vs β-synuclein): much poorer substrate of CHK compared to β-synuclein

β-synuclein: recombinant β-synuclein (GST-β-synuclein in Fig. 5); potential CHK substrate in rat brain cytosol
phosphate incorporated by CHK [6]: ~ 0.9 pmol | rate of CHK phosphorylation relative to hsp90 [7]: ~ 23 fold

— publication PMC3156789 (Biochemistry, 2011)
